# According to patent US20260297042A1, “BIARYLAMIDE DERIVATIVES AND THEIR USE AS PKMYT1 INHIBITORS” (CANCER RESEARCH TECHNOLOGY LIMITED, priority 2023, published 2026):
# Key:
# Human PKMYT1 = target: T1, Human PKMYT1 (Homo sapiens, UniProt Q99640); assay: PKMYT1 biochemical ADP-Glo enzymatic assay; conditions: ADP-Glo
# T1 construct: Human PKMYT1 75-362 was cloned as a TEV cleavable 6xHis fusion; 6xHis (TEV cleavable) (cleaved yes); made in house; host or cells: bacterial cells
# T1 sequence (Q99640 75-362): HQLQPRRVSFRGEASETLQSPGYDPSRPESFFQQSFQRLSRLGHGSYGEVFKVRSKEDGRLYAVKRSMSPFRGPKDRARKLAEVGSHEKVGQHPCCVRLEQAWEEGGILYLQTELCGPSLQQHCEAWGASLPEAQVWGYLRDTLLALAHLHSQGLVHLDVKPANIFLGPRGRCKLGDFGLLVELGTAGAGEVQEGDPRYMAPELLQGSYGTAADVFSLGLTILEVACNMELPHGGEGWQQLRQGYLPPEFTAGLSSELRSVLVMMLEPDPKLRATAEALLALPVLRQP
# Method in brief: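 IC50 values come from 10-point 3-fold series, with replicates required within 3-fold and r2 >0.9. ADP formed by PKMYT1 intrinsic ATPase (500 uM ATP, 60 min, 26° C.) was quantified by ADP-Glo luminescence. The enzyme was the TEV-cleaved kinase domain 75-362 at 15 nM, in HEPES pH 7.5 buffer.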
# WEE1 = target: T2, WEE1 (Homo sapiens, UniProt P30291); assay: Selectivity versus WEE1 assay (ADP-Glo enzymatic assay); type: biochemical; conditions: for IC50: ADP-Glo; for PKMYT1 vs. WEE1 selectivity: fold difference in selectivity for PKMYT1 over WEE1
# T2 construct: purchased Thermo Fisher PR7373A
# Method in brief: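 ADP-Glo luminescent read-out after a 60-min, 26 °C kinase reaction of 15 nM WEE1 with 30 µM ATP, in HEPES pH 7.5 buffer containing MgCl2, EGTA, Brij-35 and 1% DMSO. IC50 accepted only when replicate values agree within 3-fold and curve fit r2 exceeds 0.9.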
# OVCAR 3 cells = assay: Cancer cell line proliferation assay, ATP-based cell viability (Cell Titre Glow), OVCAR 3 (CCNE1-amplified); conditions: KYSE30 (normal CCNE1) GI50 vs. OVCAR 3 (CCNE1-amplified) GI50
# Method in brief: (§1)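 Proliferation of KYSE-30 (normal CCNE1) and CCNE1-amplified OVCAR 3 ovarian cancer cells treated with PKMYT1 inhibitors, read by Cell Titre Glow luminescence. GI50 is the concentration giving 50% growth inhibition.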
# KYSE-30 cells = assay: Cancer cell line proliferation assay, ATP-based cell viability (Cell Titre Glow), KYSE-30 (normal CCNE1); conditions: Homo sapiens, KYSE-30 cells (normal CCNE1), concentration that achieves 50% cell growth proliferation inhibition, read-out: KYSE30 Gl50
# Method in brief: as §1
# [1] = target: T3, Cellular PKMYT1 Biomarker CDK1 pT14 (Homo sapiens, UniProt Q99640); assay: Inhibition of cellular PKMYT1 biomarker CDK1 pT14 in OVCAR 3 cells (immunoblot); type: cell-based; conditions: 20 hours incubation
# T3 construct: read-out CDK1 phospho-T14 immunoblot
# T3 sequence (Q99640 1-499): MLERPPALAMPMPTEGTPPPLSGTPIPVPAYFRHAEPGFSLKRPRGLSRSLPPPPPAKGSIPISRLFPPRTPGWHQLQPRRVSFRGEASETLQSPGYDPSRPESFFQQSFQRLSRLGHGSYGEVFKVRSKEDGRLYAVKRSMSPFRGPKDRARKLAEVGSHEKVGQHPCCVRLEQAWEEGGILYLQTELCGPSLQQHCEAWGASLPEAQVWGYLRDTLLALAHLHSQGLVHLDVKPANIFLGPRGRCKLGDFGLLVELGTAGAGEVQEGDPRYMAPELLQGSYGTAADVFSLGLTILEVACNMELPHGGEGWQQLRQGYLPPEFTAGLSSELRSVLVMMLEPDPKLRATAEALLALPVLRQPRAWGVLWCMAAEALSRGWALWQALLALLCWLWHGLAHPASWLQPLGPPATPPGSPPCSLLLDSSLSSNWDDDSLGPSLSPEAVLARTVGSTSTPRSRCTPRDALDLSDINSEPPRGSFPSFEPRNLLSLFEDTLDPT
# Method in brief: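 Confluent OVCAR 3 cells treated with a compound concentration range for 20 h at 37 °C. Lysates analysed by automated capillary immunoblot for CDK1 phospho-T14, with vinculin, fluorescence detection; IC50 by regression.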
# [2] = PKMYT1 kinase domain 15 nM, banded values
# [3] = 15 nM PKMYT1 kinase domain, 500 µM ATP, 60 minutes at 26° C., banded
# [4] = 15 nM WEE1, 60 minutes at 26° C., banded
# [5] = banded, ">N" = at least in this band but could be higher
# T2 sequence (P30291 whole entry): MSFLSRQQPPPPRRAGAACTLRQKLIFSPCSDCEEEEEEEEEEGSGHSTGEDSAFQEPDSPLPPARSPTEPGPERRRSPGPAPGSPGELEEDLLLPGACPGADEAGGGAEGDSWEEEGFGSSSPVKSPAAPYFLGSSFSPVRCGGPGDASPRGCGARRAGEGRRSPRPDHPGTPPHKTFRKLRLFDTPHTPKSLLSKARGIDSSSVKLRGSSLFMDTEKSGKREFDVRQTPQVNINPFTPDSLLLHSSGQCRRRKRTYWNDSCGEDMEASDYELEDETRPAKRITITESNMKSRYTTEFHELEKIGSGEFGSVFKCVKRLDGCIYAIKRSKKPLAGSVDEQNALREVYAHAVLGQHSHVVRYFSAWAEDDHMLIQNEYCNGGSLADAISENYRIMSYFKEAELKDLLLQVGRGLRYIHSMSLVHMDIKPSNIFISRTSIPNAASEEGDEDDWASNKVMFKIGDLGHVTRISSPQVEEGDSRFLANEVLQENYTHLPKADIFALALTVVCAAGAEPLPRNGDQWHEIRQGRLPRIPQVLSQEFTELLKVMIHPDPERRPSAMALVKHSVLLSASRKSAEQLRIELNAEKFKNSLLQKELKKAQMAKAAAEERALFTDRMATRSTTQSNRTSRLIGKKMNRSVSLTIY
Compound,IC50 (Human PKMYT1; [2]) [nM],"IC50 (WEE1; WEE1 15 nM, banded values) [nM]",PKMYT1 vs. WEE1 selectivity (WEE1; banded),IC50 [1] [nM],IC50 (Human PKMYT1; [3]) [nM],IC50 (WEE1; [4]) [nM],PKMYT1 vs. WEE1 selectivity (WEE1; [5]),Selectivity ratio KYSE30 Gl50 vs. OVCAR3 Gl50 (OVCAR 3 cells),GI50 (KYSE-30 cells) [nM]
"Cc1ccc(O)c(C)c1NC(=O)c1cnc(Nc2nn(CC(=O)N3CCCC3)cc2Cl)s1 [BAA-546, 2-((4-chloro-1-(2-oxo-2-(pyrrolidin-1-yl)ethyl)-1H-pyrazol-3-yl)amino)-N-(3-hydroxy-2,6-dimethylphenyl)thiazole-5-carboxamide]",< 50,1000 to 11000,X (100-<1000 fold),< 100,,,,Y (>20 fold),> 5000
"Cc1cn(CC(=O)N(C)C2CC2)nc1Nc1ncc(C(=O)Nc2c(C)ccc(O)c2C)s1 [BAA-554, 2-((1-(2-(cyclopropyl(methyl)amino)-2-oxoethyl)-4-methyl-1H-pyrazol-3-yl)amino)-N-(3-hydroxy-2,6-dimethylphenyl)thiazole-5-carboxamide]",< 50,1000 to 11000,X (100-<1000 fold),< 100,,,,Y (>20 fold),> 5000
"CCn1nc(Nc2ncc(C(=O)Nc3c(C)ccc(O)c3C)s2)c2cc(C(F)(F)F)ccc21 [BAA-456, 2-((1-ethyl-5-(trifluoromethyl)-1H-indazol-3-yl)amino)-N-(3-hydroxy-2,6-dimethylphenyl)thiazole-5-carboxamide]",50 to 1000,> 11000,Y (1000-5000 fold),< 100,,,,X (3-20 fold),500 to 5000
"Cc1ccc(O)c(C)c1NC(=O)c1cnc(Nc2cc(C(F)(F)F)nc(N3CCOCC3)n2)s1 [BAA-326, N-(3-hydroxy-2,6-dimethylphenyl)-2-((2-morpholino-6-(trifluoromethyl)pyrimidin-4-yl)amino)thiazole-5-carboxamide]",,,,< 100,50 to 1000,> 11000,X (100-<1000 fold),Y (>20 fold),500 to 5000

# Continued, in another order:
IC50 (Human PKMYT1; [2]) [nM],"IC50 (WEE1; WEE1 15 nM, banded values) [nM]",PKMYT1 vs. WEE1 selectivity (WEE1; banded),IC50 [1] [nM],IC50 (Human PKMYT1; [3]) [nM],IC50 (WEE1; [4]) [nM],PKMYT1 vs. WEE1 selectivity (WEE1; [5]),Compound,Selectivity ratio KYSE30 Gl50 vs. OVCAR3 Gl50 (OVCAR 3 cells),GI50 (KYSE-30 cells) [nM]
< 50,> 11000,Z (>5000 fold),< 100,,,,"CCN(C(=O)Cc1cccc(Nc2ncc(C(=O)Nc3c(C)ccc(O)c3C)s2)n1)C1CC1 [BAA-426, 2-((6-(2-(Cyclopropyl(ethyl)amino)-2-oxoethyl)pyridin-2-yl)amino)-N-(3-hydroxy-2,6-dimethylphenyl)thiazole-5-carboxamide]",Y (>20 fold),500 to 5000
< 50,1000 to 11000,X (100-<1000 fold),< 100,,,,"Cc1cn(-c2cnn(C(F)F)c2)nc1Nc1ncc(C(=O)Nc2c(C)ccc(O)c2C)s1 [BAA-394, 2-((1′-(difluoromethyl)-4-methyl-1′H-[1,4′-bipyrazol]-3-yl)amino)-N-(3-hydroxy-2,6-dimethylphenyl)thiazole-5-carboxamide]",Y (>20 fold),500 to 5000
,,,< 100,< 50,1000 to 11000,X (100-<1000 fold),"Cc1cn(CC(=O)N2CC3(CCC3)C2)nc1Nc1ncc(C(=O)Nc2c(C)ccc(O)c2C)s1 [BAA-381, N-(3-hydroxy-2,6-dimethylphenyl)-2-((4-methyl-1-(2-oxo-2-(2-azaspiro[3.3]heptan-2-yl)ethyl)-1H-pyrazol-3-yl)amino)thiazole-5-carboxamide]",Y (>20 fold),> 5000
,,,< 100,< 50,> 11000,Y (1000-5000 fold),"COc1cc(-c2cccc(Nc3ncc(C(=O)Nc4c(C)ccc(O)c4C)s3)n2)cc(OC)c1OC [BAA-317, N-(3-hydroxy-2,6-dimethylphenyl)-2-((6-(3,4,5-trimethoxyphenyl)pyridin-2-yl)amino)thiazole-5-carboxamide]",Y (>20 fold),500 to 5000
